Where “and” joins values, the source holds several entries; their conditions need not be identical. Equal entries are not always repeated.
Key:
Details in all cases: exposure time: 72 h
[1] = system: FT3469 (normal neural stem cell line); experiment: surviving fraction (nuclei count normalised to DMSO); higher = more cells surviving (less toxic)
[2] = system: E28 (patient-derived glioblastoma stem cells of classical subtype); experiment: as above
[3] = system: E57 (patient-derived glioblastoma stem cells of mesenchymal subtype); experiment: as above
[4] = system: E21 (patient-derived glioblastoma stem cells of mesenchymal subtype); experiment: as above
[5] = system: E34 (patient-derived glioblastoma stem cells of proneural subtype); experiment: as above
[6] = system: E31 (patient-derived glioblastoma stem cells of proneural subtype); experiment: as above
[7] = system: E13 (patient-derived glioblastoma stem cells of classical subtype); experiment: as above
[8] = system: FT3469; experiment: phenotypic distance (Euclidean, principal components) from DMSO controls (arbitrary units); higher = stronger morphological change
[9] = system: E28; experiment: as above
[10] = system: E57; experiment: as above
[11] = system: E21; experiment: as above
[12] = system: E34; experiment: as above
[13] = system: E31; experiment: as above
[14] = system: E13; experiment: as above
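Throughout, for phenotypic distance (Euclidean, principal components) from DMSO controls: cell Painting imaging in 384-well plates, CellProfiler features reduced to at least 20 principal components, Euclidean distance versus same-plate DMSO vehicle wells (0.1% v/v), median over six images per well.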
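Throughout, for surviving fraction (nuclei count normalised to DMSO): nuclei counted by high-content imaging of Hoechst-stained cells in laminin-coated 384-well plates, relative to 0.1% DMSO vehicle wells, with staurosporine as cell-death control.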

Cc1ccc(C(=O)N(CCCN)[C@@H](c2oc3cc(Cl)ccc3c(=O)c2Cc2ccccc2)C(C)C)cc1
Details	phenotypic distance	surviving fraction
[1], 4.1 nM	–	0.493 and 0.523
[1], 12.3 nM	–	0.562 and 0.558
[1], 37 nM	–	0.606 and 0.566
[1], 111.1 nM	–	0.534 and 0.565
[1], 333.3 nM	–	0.489 and 0.597
[1], 1000 nM	–	0.556 and 0.549
[2], 4.1 nM	–	0.424 and 0.34
[2], 12.3 nM	–	0.335 and 0.367
[2], 37 nM	–	0.415 and 0.342
[2], 111.1 nM	–	0.346 and 0.352
[2], 333.3 nM	–	0.428 and 0.43
[2], 1000 nM	–	0.328 and 0.336
[3], 4.1 nM	–	0.0969 and 0.0961
[3], 12.3 nM	–	0.0867 and 0.0693
[3], 37 nM	–	0.0872 and 0.0935
[3], 111.1 nM	–	0.101 and 0.085
[3], 333.3 nM	–	0.0996 and 0.117
[3], 1000 nM	–	0.119 and 0.0974
[4], 4.1 nM	–	0.198 and 0.164
[4], 12.3 nM	–	0.186 and 0.161
[4], 37 nM	–	0.159 and 0.158
[4], 111.1 nM	–	0.192 and 0.177
[4], 333.3 nM	–	0.178 and 0.162
[4], 1000 nM	–	0.21 and 0.182
[5], 4.1 nM	–	0.598 and 0.534
[5], 12.3 nM	–	0.575 and 0.607
[5], 37 nM	–	0.606 and 0.576
[5], 111.1 nM	–	0.429 and 0.564
[5], 333.3 nM	–	0.575 and 0.595
[5], 1000 nM	–	0.549 and 0.594
[6], 4.1 nM	–	0.165
[6], 12.3 nM	–	0.184
[6], 37 nM	–	0.189
[6], 111.1 nM	–	0.126
[6], 333.3 nM	–	0.171
[6], 1000 nM	–	0.174
[6], 3000 nM	–	0.00446
[7], 4.1 nM	–	0.451 and 0.49
[7], 12.3 nM	–	0.443 and 0.489
[7], 37 nM	–	0.461 and 0.468
[7], 111.1 nM	–	0.399 and 0.43
[7], 333.3 nM	–	0.428 and 0.492
[7], 1000 nM	–	0.445 and 0.399
[8], 4.1 nM	2.95 and 2.85	–
[8], 12.3 nM	2.63 and 2.23	–
[8], 37 nM	2.78 and 2.25	–
[8], 111.1 nM	3.02 and 2.28	–
[8], 333.3 nM	3.08 and 2.17	–
[8], 1000 nM	2.54 and 2.94	–
[9], 4.1 nM	3.6 and 2.9	–
[9], 12.3 nM	3.5 and 3.14	–
[9], 37 nM	3.73 and 3.19	–
[9], 111.1 nM	3.42 and 3.15	–
[9], 333.3 nM	3.17 and 2.59	–
[9], 1000 nM	3.49 and 3.39	–
[10], 4.1 nM	8.08 and 4.22	–
[10], 12.3 nM	4.11 and 7.9	–
[10], 37 nM	4.48 and 8.38	–
[10], 111.1 nM	4.53 and 7.47	–
[10], 333.3 nM	4.17 and 7.46	–
[10], 1000 nM	4.05 and 7.38	–
[10], 3000 nM	3.9 and 9.85	–
[11], 4.1 nM	6.85 and 5.14	–
[11], 12.3 nM	6.99 and 5.4	–
[11], 37 nM	7.53 and 5.43	–
[11], 111.1 nM	5.98 and 4.77	–
[11], 333.3 nM	7.67 and 4.85	–
[11], 1000 nM	6.93 and 5.54	–
[11], 3000 nM	10.1 and 4.79	–
[12], 4.1 nM	2.72 and 1.93	–
[12], 12.3 nM	2.65 and 1.73	–
[12], 37 nM	2.52 and 2.06	–
[12], 111.1 nM	2.4 and 1.93	–
[12], 333.3 nM	2.3 and 2.24	–
[12], 1000 nM	2.35 and 1.99	–
[13], 4.1 nM	4.81	–
[13], 12.3 nM	3.13	–
[13], 37 nM	3.36	–
[13], 111.1 nM	3.73	–
[13], 333.3 nM	4.39	–
[13], 1000 nM	3.79	–
[13], 3000 nM	11.9	–
[14], 4.1 nM	3.01 and 2.45	–
[14], 12.3 nM	3.35 and 2.7	–
[14], 37 nM	2.78	–
[14], 111.1 nM	3.42 and 3.07	–
[14], 333.3 nM	2.78 and 2.91	–
[14], 1000 nM	2.81 and 3.02	–
[14], 3000 nM	2.53 and 5.91	–

O=C(Oc1cccc2cccnc12)c1ccccc1 [Benzoxiquine]
Details	phenotypic distance	surviving fraction
[1], 4.1 nM	–	1.05
[1], 12.3 nM	–	0.924
[1], 37 nM	–	1.06
[1], 111.1 nM	–	1.03
[1], 333.3 nM	–	1.21
[1], 1000 nM	–	1
[1], 3000 nM	–	0.00288
[2], 4.1 nM	–	0.997
[2], 12.3 nM	–	1.14
[2], 37 nM	–	1.07
[2], 111.1 nM	–	1.1
[2], 333.3 nM	–	1.07
[2], 1000 nM	–	1.27
[2], 3000 nM	–	0.00427
[3], 4.1 nM	–	0.965
[3], 12.3 nM	–	0.992
[3], 37 nM	–	0.997
[3], 111.1 nM	–	1.01
[3], 333.3 nM	–	0.999
[3], 1000 nM	–	1.02
[3], 3000 nM	–	0.00305
[4], 4.1 nM	–	0.962
[4], 12.3 nM	–	1.11
[4], 37 nM	–	1.13
[4], 111.1 nM	–	1.1
[4], 333.3 nM	–	0.981
[4], 1000 nM	–	1.04
[4], 3000 nM	–	0
[5], 4.1 nM	–	0.906
[5], 12.3 nM	–	0.899
[5], 37 nM	–	0.981
[5], 111.1 nM	–	1.1
[5], 333.3 nM	–	1.07
[5], 1000 nM	–	0.844
[5], 3000 nM	–	0.00175
[6], 4.1 nM	–	0.993
[6], 12.3 nM	–	0.838
[6], 37 nM	–	0.975
[6], 111.1 nM	–	1.19
[6], 333.3 nM	–	1.04
[6], 1000 nM	–	1.04
[6], 3000 nM	–	0
[7], 4.1 nM	–	0.876
[7], 12.3 nM	–	0.962
[7], 37 nM	–	1.05
[7], 111.1 nM	–	0.997
[7], 333.3 nM	–	1.09
[7], 1000 nM	–	0.85
[7], 3000 nM	–	0.000925
[8], 4.1 nM	0.579	–
[8], 12.3 nM	0.893	–
[8], 37 nM	0.62	–
[8], 111.1 nM	0.641	–
[8], 333.3 nM	1.07	–
[8], 1000 nM	0.688	–
[8], 3000 nM	14.3	–
[9], 4.1 nM	1.39	–
[9], 12.3 nM	0.791	–
[9], 37 nM	1.24	–
[9], 111.1 nM	0.938	–
[9], 333.3 nM	0.845	–
[9], 1000 nM	1.59	–
[9], 3000 nM	17.6	–
[10], 4.1 nM	0.568	–
[10], 12.3 nM	0.458	–
[10], 37 nM	0.358	–
[10], 111.1 nM	0.673	–
[10], 333.3 nM	0.716	–
[10], 1000 nM	0.72	–
[10], 3000 nM	13.7	–
[11], 4.1 nM	1.17	–
[11], 12.3 nM	0.851	–
[11], 37 nM	1.34	–
[11], 111.1 nM	0.833	–
[11], 333.3 nM	1.24	–
[11], 1000 nM	0.732	–
[11], 3000 nM	23.9	–
[12], 4.1 nM	0.673	–
[12], 12.3 nM	0.614	–
[12], 37 nM	0.56	–
[12], 111.1 nM	0.455	–
[12], 333.3 nM	0.815	–
[12], 1000 nM	1.42	–
[12], 3000 nM	19.8	–
[13], 4.1 nM	1.12	–
[13], 12.3 nM	1.22	–
[13], 37 nM	0.854	–
[13], 111.1 nM	1.7	–
[13], 333.3 nM	1.32	–
[13], 1000 nM	1.22	–
[13], 3000 nM	15.5	–
[14], 4.1 nM	1.08	–
[14], 12.3 nM	1.14	–
[14], 37 nM	0.78	–
[14], 111.1 nM	0.506	–
[14], 333.3 nM	0.775	–
[14], 1000 nM	0.864	–
[14], 3000 nM	19.1	–
